Measurements taken from ChEMBL document CHEMBL1144063, “ent-kaurane diterpenoids from Isodon lungshengensis” (J Nat Prod, 1999).
In brackets after ≈: the same amount, converted by molar mass.

Test system: K562
Assay: Cytotoxicity against human K-562 cells by MTT assay
Assay type: functional, cell-based

Structure (SMILES)	IC50 [µg/mL]
C=C1C(=O)[C@]23C[C@H]1C[C@H](O)[C@H]2[C@@]1(C)[C@H]([C@@H](O)C3)C(C)(C)[C@@H](OC(C)=O)[C@@H](OC(C)=O)[C@@H]1O [LUNGSHENGENIN A]	11.7 (≈ 26 µM)
C=C1C(=O)[C@]23C[C@H]1C[C@H](O)[C@H]2[C@]1(C)C[C@H](OC(C)=O)[C@H](OC(C)=O)C(C)(C)[C@H]1[C@@H](OC(C)=O)C3 [LUNGSHENGENIN C]	1.14 (≈ 2.39 µM)
C=C1C(=O)[C@@]23CC(=O)[C@@H]4C(C)(C)[C@@H](OC(C)=O)[C@@H](OC(C)=O)[C@H](O)[C@@]4(C)[C@@H]2[C@@H](O)C[C@@H]1C3 [LUNGSHENGENIN G]	3.29 (≈ 7.34 µM)
